From ChEMBL document CHEMBL5335794, “Discovery of novel multifunctional ligands targeting GABA transporters, butyrylcholinesterase, β-secretase, and amyloid β aggregation as potential treatment of Alzheimer's disease” (Eur J Med Chem, 2023) come the findings set out here.

In assay [1] the target is Acetylcholinesterase (Electrophorus electricus) (UniProt O42275). Put plainly: Inhibition of electric eel AChE using acetylthiocholine iodide as substrate at 10 uM preincubated for 5 mins followed by substrate addition and measured after 5 mins by DTNB reagent based Ellman's method relative to control. The note with it: time 10.0 min.
Assay [2] deals with Beta-secretase 1 (Homo sapiens, UniProt P56817). The note with it: dose 50.0 µM, time 60.0 min.
The target in assay [3] is Cholinesterase (Equus caballus) (UniProt P81908). Put plainly: Inhibition of equine serum BuChE using butyrylthiocholine iodide as substrate at 10 uM preincubated for 5 mins followed by substrate addition and measured after 5 mins by DTNB reagent based Ellman's method relative to control. The note with it: time 10.0 min. On the technique in general: In Ellman's method for cholinesterases, released thiocholine reacts with DTNB.

Assay [4] has as its target Cholinesterase (Equus caballus, UniProt P81908).
Description: Inhibition of equine serum BuChE using butyrylthiocholine iodide as substrate preincubated for 5 mins followed by substrate addition and measured after 5 mins by DTNB reagent based Ellman's method

Beta-secretase 1, sequence (P56817 whole entry): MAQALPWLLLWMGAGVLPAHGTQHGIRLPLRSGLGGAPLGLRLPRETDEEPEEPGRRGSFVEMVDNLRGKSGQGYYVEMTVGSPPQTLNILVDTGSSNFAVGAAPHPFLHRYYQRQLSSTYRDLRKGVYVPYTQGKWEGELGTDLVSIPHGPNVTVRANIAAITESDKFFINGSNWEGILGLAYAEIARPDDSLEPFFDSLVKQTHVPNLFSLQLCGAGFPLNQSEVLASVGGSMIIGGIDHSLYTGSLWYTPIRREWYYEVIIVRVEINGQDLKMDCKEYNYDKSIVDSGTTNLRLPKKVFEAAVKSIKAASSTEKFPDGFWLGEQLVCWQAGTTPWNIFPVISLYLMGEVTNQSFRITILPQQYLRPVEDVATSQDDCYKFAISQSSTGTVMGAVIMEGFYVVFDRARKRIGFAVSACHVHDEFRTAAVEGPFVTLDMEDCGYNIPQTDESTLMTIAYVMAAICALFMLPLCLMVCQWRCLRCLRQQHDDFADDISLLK
Cholinesterase, sequence (P81908 whole entry): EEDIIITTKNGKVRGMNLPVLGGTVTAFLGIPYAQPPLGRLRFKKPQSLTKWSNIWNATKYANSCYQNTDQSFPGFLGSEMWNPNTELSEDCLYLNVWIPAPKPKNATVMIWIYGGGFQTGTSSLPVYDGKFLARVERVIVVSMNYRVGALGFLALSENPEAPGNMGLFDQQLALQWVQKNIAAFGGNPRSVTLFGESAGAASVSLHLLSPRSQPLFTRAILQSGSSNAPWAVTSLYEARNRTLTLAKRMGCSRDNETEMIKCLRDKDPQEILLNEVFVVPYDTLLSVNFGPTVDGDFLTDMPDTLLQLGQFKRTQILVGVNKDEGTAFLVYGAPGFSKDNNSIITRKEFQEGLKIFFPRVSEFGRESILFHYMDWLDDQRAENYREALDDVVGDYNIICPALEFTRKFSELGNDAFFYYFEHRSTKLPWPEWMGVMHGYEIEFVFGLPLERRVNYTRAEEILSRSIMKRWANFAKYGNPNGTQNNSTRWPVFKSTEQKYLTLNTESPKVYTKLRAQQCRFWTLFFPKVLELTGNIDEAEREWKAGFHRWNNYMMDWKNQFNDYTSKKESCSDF
Cholinesterase (Equus caballus), sequence (P81908 whole entry): as above
Acetylcholinesterase (Electrophorus electricus), sequence (O42275 24-633 limits assumed): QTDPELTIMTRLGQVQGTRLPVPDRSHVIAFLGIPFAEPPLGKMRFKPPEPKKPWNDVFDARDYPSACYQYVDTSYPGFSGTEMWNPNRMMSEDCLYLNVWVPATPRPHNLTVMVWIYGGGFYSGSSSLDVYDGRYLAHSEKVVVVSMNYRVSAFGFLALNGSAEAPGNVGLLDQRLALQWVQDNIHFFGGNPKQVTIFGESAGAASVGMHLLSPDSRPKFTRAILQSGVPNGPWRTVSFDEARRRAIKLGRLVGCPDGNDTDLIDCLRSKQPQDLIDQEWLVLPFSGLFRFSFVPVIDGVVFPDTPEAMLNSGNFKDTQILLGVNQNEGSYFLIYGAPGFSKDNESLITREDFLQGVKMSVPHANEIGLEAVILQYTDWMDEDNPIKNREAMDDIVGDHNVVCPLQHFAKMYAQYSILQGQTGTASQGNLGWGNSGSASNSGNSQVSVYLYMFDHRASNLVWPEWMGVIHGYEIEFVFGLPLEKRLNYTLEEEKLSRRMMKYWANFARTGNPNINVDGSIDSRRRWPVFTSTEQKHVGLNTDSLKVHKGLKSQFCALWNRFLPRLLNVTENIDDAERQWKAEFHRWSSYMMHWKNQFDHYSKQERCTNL

As a reminder, the inhibition is the change of the read-out against control, counted positive when it falls. A lower inhibition goes with a weak effect. `CC(=O)NCCC(C(=O)NCc1ccccc1)N(C)CCC=C1c2ccccc2CCc2ccccc21` (centres undefined): the inhibition in assay [1] is below 10%; in assay [2], 34%; in assay [3], 60%.
On the same counts, the results for `CC(=O)NCCC(C(=O)NCc1ccccc1Cl)N(C)CCC=C1c2ccccc2CCc2ccccc21` (centres undefined) are below 10%, 44% and 41%.
Taken in the same sequence, the figures for `CN(CCC=C1c2ccccc2CCc2ccccc21)C(CO)C(=O)NCc1ccc(Cl)cc1` (centres undefined) were below 10%, 34% and 36%.
One may read the IC50 as the concentration at which inhibition is half-maximal. Higher therefore signals weaker potency. As for `CN(CCC=C1c2ccccc2C=Cc2ccccc21)C(CO)C(=O)NCc1ccc(F)cc1` (centres undefined), the inhibition in assay [1] is below 10%; in assay [2] it was 30%. In addition, in assay [4], the IC50 was 3.24 µM.
Regarding `Cc1ccc(CNC(=O)C(CCO)N(C)CCC=C2c3ccccc3C=Cc3ccccc32)cc1` (centres undefined), the inhibition in assay [1] is below 10%; in assay [2], 47%; in assay [3] it was 35%.
For the compound `CN(CCC=C1c2ccccc2CCc2ccccc21)C(CO)C(=O)NCc1ccc(F)cc1` (centres undefined), the inhibition in assay [1] is below 10%; in assay [2] it was 48%; in assay [3], 32%.
Taken in the same sequence, the figures for `CN(CCC=C1c2ccccc2CCc2ccccc21)C(CCO)C(=O)NCc1ccccc1Cl` (centres undefined) were 11%, 44% and 24%.
On the same counts, the results for `CN(CCC=C1c2ccccc2CCc2ccccc21)C(CO)C(=O)NCc1ccccc1` (centres undefined) are below 10%, 33% and 38%.
On the same counts, the results for `CN(CCC=C1c2ccccc2C=Cc2ccccc21)C(CCO)C(=O)NCc1ccc(Cl)cc1` (centres undefined) are below 10%, 48% and 21%.
Consider `Cc1ccc(CNC(=O)C(CCO)N(C)CCC=C2c3ccccc3CCc3ccccc32)cc1` (centres undefined), for which the inhibition in assay [1] was below 10%; in assay [2] it was 41%; in assay [3], 36%.
With `CN(CCC=C1c2ccccc2C=Cc2ccccc21)C(CCO)C(=O)NCc1ccc(F)cc1` (centres undefined), the figures for the inhibition in assay [1], in assay [2] and in assay [3] were below 10%, 39% and 39%, respectively.
As to `CN(CCC=C1c2ccccc2CCc2ccccc21)C(CCO)C(=O)NCc1ccc(F)cc1` (centres undefined), the inhibition in assay [1] is below 10%; in assay [2], 34%; in assay [3], 39%.
Turning to `CN(CCC=C1c2ccccc2CCc2ccccc21)C(CCO)C(=O)NCc1ccccc1` (centres undefined), the inhibition in assay [1] was below 10%; in assay [2], 19%; in assay [3] it was 38%.
Regarding `CN(CCC=C1c2ccccc2-c2ccccc21)C(CCO)C(=O)NCc1ccccc1Cl` (centres undefined), the inhibition in assay [1] was below 10%; in assay [2], 59%. The compound further returned an IC50 in assay [4] of 1.63 µM.
With `Cc1ccc(CNC(=O)C(CO)N(C)CCC=C2c3ccccc3C=Cc3ccccc32)cc1` (centres undefined), the results for the inhibition in assay [1] and in assay [2] were 30% and 54%, respectively. Moreover, in assay [4], the IC50 was 6.22 µM.
As to `CN(CCC=C1c2ccccc2C=Cc2ccccc21)C(CCO)C(=O)NCc1ccccc1` (centres undefined), the inhibition in assay [1] was below 10%; in assay [2], 34%; in assay [3] it was 56%.
On the same counts, the results for `CC(=O)NCCC(C(=O)NCc1ccc(F)cc1)N(C)CCC=C1c2ccccc2CCc2ccccc21` (centres undefined) are below 10%, 54% and 47%.
Turning to `CN(CCC=C1c2ccccc2C=Cc2ccccc21)C(CO)C(=O)NCc1ccccc1` (centres undefined), the inhibition was below 10% in assay [1] and 29% in assay [2]. In addition, the IC50 in assay [4] was 4.35 µM.
Turning to `CN(CCC=C1c2ccccc2C=Cc2ccccc21)C(CO)C(=O)NCc1ccccc1Cl` (centres undefined), the values for the inhibition in assay [1] and in assay [2] were 12% and 52%, respectively. In addition, inhibition in assay [4] was half-maximal at 8.23 µM (IC50).
Consider `CC(O)CC(C(=O)NCc1ccccc1)N(C)CC/C=C/c1ccccc1-c1ccccc1` (racemic; form 2), for which the inhibition in assay [1] is below 10%; in assay [2] it was 4%.
